Key:
[1] = tested on: HFD-fed rats injected with streptozotocin (STZ) to induce type 2 diabetes (T2DM); assay: Study 3 (BVISIV Study): HFD plus STZ type 2 diabetes rats, 200 mg/kg/day; assay type: in vivo
[2] = has been reported; model of accelerated aging; cited from earlier work

O=C[C@H](O)[C@@H](O)[C@@H](O)[C@H](O)CO [BVISIV 5, Galactose]
reduction of serum ALT levels ([1]; HFD/T2DM rats): effective | reduction of serum LDL cholesterol levels ([1]; HFD/T2DM rats): effective | reduction of serum triglyceride levels ([1]; HFD/T2DM rats): effective | aging effect (cognitive and motor skills) [2]: deterioration of cognitive and motor skills

O=C[C@@H](O)[C@H](O)[C@H](O)CO [BVISIV 6, Arabinose]
comparative performance among formulations (triglycerides, LDL cholesterol, ALT) ([1]; HFD/T2DM rats): did not perform as well as the other formulations

O=C[C@H](O)[C@@H](O)[C@@H](O)[C@H](O)C(=O)O [BVISIV 4, Galacturonic Acid]
lowering of glucose serum levels vs Group 2 ([1]; end of 6 weeks): most effective

From patent US20180256616A1, “Compounds, Compositions and Methods for Prevention or Treatment of Liver and Lipid-Related Conditions” (Sivanaray, Inc., priority 2015, published 2018)
